{"source": "patent US10759740B2", "about": "“Antibacterial agents” (Rutgers, The State University of New Jersey, priority 2016, dated 2020)", "format_in_all_cases": "cell-based", "key": {"[1]": {"test_system": "Pseudomonas aeruginosa ATCC 15442", "experiment": "Broth microdilution assay (MIC)", "conditions": "BHI broth, 37° C., 24 h, no visible growth", "method": "(§1) From the frozen stock (−80° C.), bacteria were inoculated into brain-hear infusion (BHI) agar (Becton Dickinson, Franklin Lakes, N.J.) and propagated under aerobic conditions at 37° C. for 24 h. After the incubation, one colony of each bacterial strain was transferred to BHI broth (Becton Dickinson, Franklin Lakes, N.J.) and sub-cultured at least twice into BHI before being used in experiments.\n(§2) The minimal inhibitory concentration (MIC) of CAms were identified using a broth microdilution assay modified from previous studies. Briefly, the stock solutions of CAMs were first prepared by dissolving in double-distilled water (ddH2O) and then diluted in BHI broth at pre-determined concentrations. Further serial 2-fold dilutions were performed in a 96-well microplate (Becton Dickinson, Franklin Lakes, N.J.) with BHI broth. The inoculum concentration was adjusted to 5×10^6 CFU/mL with ultraviolet-visible (UV-vis) spectroscopy at 600 nm. An equal volume (100 μL) of bacterial suspension was added to each microplate well with a final volume of 200 μL. Plates were incubated at 37° C. for 24 h under aerobic conditions. The lowest CAm concentration that yielded no visible growth was recorded as the MIC. Cetyltrimethylammonium bromide (CTAB), a cationic amphiphile, served as a positive control that could mimic the proposed bactericidal mechanism of the newly synthesized tartaric acid-based compounds.\n(§3) CAms were evaluated against five selected pathogenic microorganisms, including Gram-positive bacteria (i.e., S. aureus and L. monocytogenes) and Gram-negative bacteria (i.e., E. coli, S. typhimurium, and P. aeruginosa), using a turbidity-based microdilution method. MICs were taken as the lowest concentrations that inhibited the visible bacterial growth. […] The higher MIC values for the Gram-negative bacteria could be attributed to the presence of an additional lipopolysaccharide layer, which forms a hydrophilic barrier that could prevent penetration of the highly hydrophobic CAms."}, "[2]": {"test_system": "Staphylococcus aureus ATCC 13565", "experiment": "Broth microdilution assay (MIC)", "conditions": "BHI broth, 37° C., 24 h, no visible growth", "method": "as §1, §2, §3"}, "[3]": {"test_system": "Escherichia coli O157:H7", "experiment": "Broth microdilution assay (MIC)", "conditions": "BHI broth, 37° C., 24 h, no visible growth", "method": "as §1, §2, §3"}, "[4]": {"test_system": "Listeria monocytogenes Scott A", "experiment": "Broth microdilution assay (MIC)", "conditions": "BHI broth, 37° C., 24 h, no visible growth", "method": "as §1, §2, §3"}, "[5]": {"test_system": "Lactobacillus plantarum ATCC 39268", "experiment": "MIC broth microdilution (Example 3)", "conditions": "planktonic", "method": "(§4) G. vaginalis ATCC 14019 strain was grown overnight in Brain Heart Infusion broth (Difco, Sparks, Md.) supplemented with 3% horse serum (sBHI) (JRH Biosciences, KS), while BHI supplemented with 1% glucose (BHIG) was used for biofilm formation assays. Each experiment using G. vaginalis was performed anaerobically (10% hydrogen, 5% carbon dioxide, and 85% nitrogen) within anaerobic glove boxes (Coy Laboratory Products, Inc., Grass Lake, Mich., USA). Three species of vaginal Lactobacillus were used in this study to evaluate the possible harmful effects of CAms on beneficial bacteria: Lactobacillus plantarum ATCC 39268, Lactobacillus rhamnosus 160 (provided by Dr. Aroutcheva, Rush University Medical Center) and Lactobacillus gasseri ATCC 33323; all were grown for 18-24 h in DeMan, Rogosa and Sharpe broth (MRS Difco B D, Franklin Lakes, N.J., USA) under aerobic conditions at 37° C. For lactobacilli biofilm formation, MRS broth supplemented with 1% glucose and 2% sucrose (Fisher Scientific, Waltham, Mass., USA) was utilized.\n(§5) To prepare a stock solution, the CAm compounds were dissolved in ddH2O and incubated at 37° C. with shaking at 250 rpm for 10 min. Then, the solution was serially diluted twofold with sBHI broth to determine the MIC and with BHIG broth to identify the MIC-B/MBC-B against planktonic and biofilm cells, respectively.\n(§6) According to Clinical and Laboratory Standards Institute (CLSI 2010), the MIC is defined as the lowest concentration of antimicrobial compound producing no visible growth or complete inhibition of bacterial growth during 24 h. To determine MIC values, the broth microdilution assay was performed according to Algburi et al. (Algburi et al., 2015. Path Dis 73(5)) with minor modifications. Briefly, the overnight-grown cells were diluted with their suitable culture medium to approach ˜10^6 CFU/ml. The number of bacterial cells was identified using spot plate method (Turovskiy et al., 2012. Infect Dis Obstet Gynecol 2012:284762). The CAms were serially diluted twofold with sBHI into a non-tissue culture 96-well microplate plate (Falcon, Corning Incorporated, Corning, N.Y., USA) resulting in a final volume of 100 μl for each well. Aliquots of 100 μl of the diluted cell suspension (˜10^6 CFU/ml) were added to each well of a microplate that was treated with different concentrations of CAms. To avoid culture medium evaporation, 75 μl of mineral oil (Sigma-Aldrich, St. Louis, Mo.) was added to each treated well. The microplate was then transferred to the plate reader (Model 550, Bio-Rad Laboratories, Hercules, Calif., USA) and incubated at 37° C. for 24-36 h. The kinetic reading was statistically analyzed, and the MIC and sub-MIC of each CAm compound were determined."}, "[6]": {"test_system": "Lactobacillus rhamnosus 160", "experiment": "MIC broth microdilution (Example 3)", "conditions": "planktonic", "method": "as §4, §5, §6"}, "[7]": {"test_system": "Lactobacillus gasseri ATCC 33323", "experiment": "MIC broth microdilution (Example 3)", "conditions": "planktonic", "method": "as §4, §5, §6"}}, "data": [{"compound": "CCCCCCCCCCOC(C(=O)NCCN)C(OCCCCCCCCCC)C(=O)NCCN.Cl.Cl", "note": "(stereo not drawn) [5b]", "values": [{"measurement": "MIC P. aeruginosa (G−)", "setting": "[1]", "value": 3.9, "unit": "µg/mL"}, {"measurement": "MIC S. aureus (G+)", "setting": "[2]", "value": 0.95, "unit": "µg/mL"}, {"measurement": "MIC E. coli (G−)", "setting": "[3]", "value": 3.9, "unit": "µg/mL"}, {"measurement": "MIC L. monocytogenes (G+)", "setting": "[4]", "value": 0.95, "unit": "µg/mL"}, {"measurement": "MIC L. plantarum", "setting": "[5]", "value": 25.7, "unit": "µM"}, {"measurement": "MIC L. rhamnosus", "setting": "[6]", "value": 13.3, "unit": "µM"}, {"measurement": "MIC L. gasseri", "setting": "[7]", "value": 4.4, "unit": "µM"}]}, {"compound": "CCCCCCCC(=O)OC(C(=O)NCCN)C(OC(=O)CCCCCCC)C(=O)NCCN.Cl.Cl", "note": "(stereo not drawn) [8a]", "values": [{"measurement": "MIC P. aeruginosa (G−)", "setting": "[1]", "value": 31.2, "unit": "µg/mL"}, {"measurement": "MIC S. aureus (G+)", "setting": "[2]", "value": 31.2, "unit": "µg/mL"}, {"measurement": "MIC E. coli (G−)", "setting": "[3]", "value": 62.5, "unit": "µg/mL"}, {"measurement": "MIC L. monocytogenes (G+)", "setting": "[4]", "value": 31.2, "unit": "µg/mL"}, {"measurement": "MIC L. plantarum", "setting": "[5]", "value": 223, "unit": "µM"}, {"measurement": "MIC L. rhamnosus", "setting": "[6]", "value": 111.6, "unit": "µM"}, {"measurement": "MIC L. gasseri", "setting": "[7]", "value": 55.9, "unit": "µM"}]}, {"compound": "CCCCCCCCCC(=O)OC(C(=O)NCCN)C(OC(=O)CCCCCCCCC)C(=O)NCCN.Cl.Cl", "note": "(stereo not drawn) [8b]", "values": [{"measurement": "MIC P. aeruginosa (G−)", "setting": "[1]", "value": 3.9, "unit": "µg/mL"}, {"measurement": "MIC S. aureus (G+)", "setting": "[2]", "value": 1.9, "unit": "µg/mL"}, {"measurement": "MIC E. coli (G−)", "setting": "[3]", "value": 3.9, "unit": "µg/mL"}, {"measurement": "MIC L. monocytogenes (G+)", "setting": "[4]", "value": 1.9, "unit": "µg/mL"}, {"measurement": "MIC L. plantarum", "setting": "[5]", "value": 33.3, "unit": "µM"}, {"measurement": "MIC L. rhamnosus", "setting": "[6]", "value": 12.7, "unit": "µM"}, {"measurement": "MIC L. gasseri", "setting": "[7]", "value": 12.7, "unit": "µM"}]}]}
